Columns and labels:
CDK6/CyclinD1 = target: T1, CDK6/CyclinD1 (Homo sapiens, UniProt Q00534); test: In vitro cell-free CDK6/CyclinD1 kinase activity assay (TR-FRET); format: biochemical; settings: ATP at Km
T1 construct: purchased Carna 04-114
Description: It should be noted that the assay can also be conducted by a similar method. The assay steps in this Test Example are as follows:
The CDK6/CyclinD1 kinase activity was determined using a time-resolved fluorescence resonance energy transfer (TR-FRET) method. Measurements were performed in a reaction volume of 20 μL using 384-well assay plates. […] The reaction was stopped by adding a mixture of a peptide antibody (trade name: Cisbio, product No. 64CUSKAY) and Sa-XL665 (trade name: Cisbio, product No. 610SAXLB) diluted in HTRF KinEASE detection buffer (trade name: Cisbio, product No. 62SDBRDF, containing EDTA). After the mixture was incubated for 1 hour at room temperature, the plate was read. The TR-FRET signal was measured on a multimode plate reader (EnVision™, a multi-function microplate detector, PerkinElmer) at an excitation wavelength (λEx) of 330 nm and detection wavelengths (λEm) of 615 and 665 nm. The activity was determined by the ratio of fluorescence at 665 nm to that at 615 nm. For each compound, the enzyme activities of different concentrations of the compound were measured to determine IC50. The negative control contained no inhibitor. Two no-enzyme controls were used to determine baseline fluorescence levels. IC50 was obtained by fitting using the GraphPad 6.02 software.
8-10 concentrations were prepared for each compound, and formulated in DMSO. The stock concentration was 200× the working concentration. For example, if the working concentration was 100 nM, the corresponding concentration of the formulated stock solution was 20 μM.
In the analysis of in vitro inhibitory activity on CDK kinase, the IC50 value of each of the Example compounds and Reference Example compounds was determined.

MCF-7 cells = test: Cell viability assay, MCF-7 cells (CellTiter-Glo, 168 h); format: cell-based; settings: Homo sapiens, MCF7
Description: An in vitro cell viability assay was conducted using some Example compounds following the steps below:
1. After recovery, MCF-7 cells (obtained from the Shanghai Cell Bank of the Chinese Academy of Sciences) were cultured at 37° C., 5% CO2, and 95% humidity.
2. 8 compound solutions at different concentrations were prepared for each Example compound. 50 μL of the compound solution at each concentration was added to a 96-well black plate.
3. The cell concentration was adjusted to about 30,000 cells/mL. 100 μL of the cell suspension was added to the 96-well plate, and mixed well to a final cell density of about 3,000 cells/well.
4. The 96-well plate was incubated at 37° C., 5% CO2, and 95% humidity for 168 h, i.e., 7 days.
5. The cell survival rate was measured by the method of CellTiter-Glo® Luminescent Cell Viability Assay (Promega, Cat #G7572). The fluorescence data were read on a microplate reader (EnVision™, a multi-function microplate detector, PerkinElmer).
6. The obtained fluorescence data were analyzed using the GraphPad Prism software. The cell survival rate was calculated for each Example compound at each concentration, and the IC50 interval of each Example compound was determined.

T1 sequence (Q00534 whole entry): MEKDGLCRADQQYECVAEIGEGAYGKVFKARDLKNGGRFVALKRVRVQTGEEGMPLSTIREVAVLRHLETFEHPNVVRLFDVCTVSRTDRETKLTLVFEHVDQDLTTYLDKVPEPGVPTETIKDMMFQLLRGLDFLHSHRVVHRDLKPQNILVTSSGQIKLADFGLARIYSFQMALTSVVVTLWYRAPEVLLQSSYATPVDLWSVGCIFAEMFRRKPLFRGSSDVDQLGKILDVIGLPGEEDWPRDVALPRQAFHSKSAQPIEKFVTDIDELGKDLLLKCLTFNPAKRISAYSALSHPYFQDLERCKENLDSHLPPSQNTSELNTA
T1 sequence (P24385 whole entry partner): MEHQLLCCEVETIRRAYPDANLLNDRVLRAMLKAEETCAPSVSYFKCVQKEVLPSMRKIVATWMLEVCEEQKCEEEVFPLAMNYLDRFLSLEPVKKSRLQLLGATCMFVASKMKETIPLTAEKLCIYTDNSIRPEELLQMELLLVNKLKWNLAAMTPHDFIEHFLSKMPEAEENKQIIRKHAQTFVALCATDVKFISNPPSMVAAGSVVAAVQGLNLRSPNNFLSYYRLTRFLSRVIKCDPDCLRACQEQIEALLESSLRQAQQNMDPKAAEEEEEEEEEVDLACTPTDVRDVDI

| SMILES | IC50 (CDK6/CyclinD1) | IC50 (MCF-7 cells) |
| --- | --- | --- |
| CC(C)n1cc(-c2cc3cnc(Nc4ccc(N5CCNCC5)cn4)nn3c2C2=CCCC2)cn1 [Example 87] | 100 to 1000 nM | < 500 nM |
| COC(=O)c1cc2cnc(Nc3ccc(N4CC5(CNC5)C4)cn3)nn2c1-c1cccc2cccnc12 [Reference Example 133, reference compound] | > 3000 nM | > 10000 nM |
| FC(F)n1cc(-c2cc3cnc(Nc4ccc(N5CCNCC5)cn4)nn3c2C2=CCCC2)cn1 [Example 72] | 100 to 1000 nM | 500 to 2500 nM |
| C1=C(c2c(-c3cnoc3)cc3cnc(Nc4ccc(N5CCNCC5)cn4)nn23)CCC1 [Example 76] | < 100 nM | 2500 to 10000 nM |
| COc1ccc(-c2c(C#N)cc3cnc(Nc4ccc(N5CCNCC5)cc4)nn23)cc1 [Example 9] | < 100 nM | < 500 nM |
| Cn1cc(-c2c(C3=CCCC3)c3cnc(Nc4ccc(N5CCNCC5)cn4)nn3c2C2=CCCC2)cn1 [Reference Example 130, reference compound] | 1000 to 3000 nM |  |
| Cn1cc(-c2cc3cnc(Nc4ccc(N5CC6(CCNC6)C5)cn4)nn3c2C2=CCCC2)cn1 [Example 92] | 100 to 1000 nM | 500 to 2500 nM |
| COc1cc(F)ccc1-c1c(C(=O)N(C)C)cc2cnc(Nc3ccc(N4CCC5(CC4)CNC5)cn3)nn12 [Example 62] | 100 to 1000 nM |  |
| CN(C)C(=O)c1cc2cnc(Nc3ccc(N4CCC5(CC4)CC5)cn3)nn2c1C1=CCCC1 [Example 35] | 100 to 1000 nM | 500 to 2500 nM |
| CCN1CCN(c2ccc(Nc3ncc4cc(C(=O)N(C)C)c(C5=CCCC5)n4n3)nc2)CC1 [Example 103] | < 100 nM | < 500 nM |
| COc1ccc(-c2c(C(=O)N(C)C)cc3cnc(Nc4ccc(N5CCN(C)CC5)cn4)nn23)cc1 [Example 100] | < 100 nM | < 500 nM |
| Cn1ccc(-c2cc3cnc(Nc4ccc(N5CCNCC5)cn4)nn3c2C2=CCCC2)cc1=O [Example 80] | < 100 nM |  |
| CN1CCN(c2ccc(Nc3ncc4ccc(C5=CCCC5)n4n3)cc2)CC1 [Example 5] | 100 to 1000 nM | < 500 nM |
| C1=C(c2c(-c3ccncc3)cc3cnc(Nc4ccc(N5CCNCC5)cn4)nn23)CCC1 [Example 97] | < 100 nM | < 500 nM |
| O=C1CCCN1c1cc2cnc(Nc3ccc(N4CCNCC4)cn3)nn2c1C1=CCCC1 [Example 52] | 100 to 1000 nM | 2500 to 10000 nM |
| CP(C)(=O)c1ccc(Nc2ncc3cc(C#N)c(Br)n3n2)cc1 [Reference Example 128, reference compound] | 1000 to 3000 nM | > 10000 nM |
| CN(C)C(=O)c1cc2cnc(Nc3ccc(N4CCNCC4)cn3)nn2c1N1CCCCC1 [Example 31] | < 100 nM | < 500 nM |
| [2H]C([2H])([2H])N1CCN(c2ccc(Nc3ncc4cc(C(=O)N(C([2H])([2H])[2H])C([2H])([2H])[2H])c(-c5ccccc5)n4n3)nc2)CC1 [Example 123] | < 100 nM | < 500 nM |
| N#Cc1cc2cnc(Nc3ccc(N4CCNCC4)cn3)nn2c1C1=CCC(=O)CC1 [Example 30] | 100 to 1000 nM | 2500 to 10000 nM |
| C1=C(c2c(-c3cccnc3)cc3cnc(Nc4ccc(N5CCNCC5)cn4)nn23)CCC1 [Example 88] | < 100 nM | < 500 nM |
| N#Cc1cc2cnc(Nc3ccc(N4CCNCC4)cc3)nn2c1N1CCC2(CCCCC2)C1 [Example 17] | < 100 nM | < 500 nM |
| CN1CCN(c2ccc(Nc3ncc4cc(-c5cncnc5)c(C5=CCCC5)n4n3)nc2)CC1 [Example 98] | < 100 nM | 500 to 2500 nM |
| [2H]C([2H])([2H])N1CCN(c2ccc(Nc3ncc4cc(C(=O)N(C)C)c(C5=CCCC5)n4n3)nc2)CC1 [Example 102] | < 100 nM | < 500 nM |
| [2H]C([2H])([2H])N(C(=O)c1cc2cnc(Nc3ccc(N4CCN(C([2H])([2H])C([2H])([2H])[2H])CC4)cn3)nn2c1C1=CCCC1)C([2H])([2H])[2H] [Example 115] | < 100 nM | < 500 nM |
| N#Cc1cc2cnc(Nc3ccc(N4CCNCC4)cn3)nn2c1-c1cccnc1 [Example 27] | 100 to 1000 nM | 2500 to 10000 nM |
| Cn1cc(-c2cc3cnc(Nc4ccc(N5CCNCC5)cn4)nn3c2)cn1 [Example 81] | 100 to 1000 nM | 2500 to 10000 nM |

| SMILES | IC50 (CDK6/CyclinD1) | IC50 (MCF-7 cells) |
| --- | --- | --- |
| Cc1nn(C)cc1-c1c(C(=O)N(C)C)cc2cnc(Nc3ccc(N4CC5(CNC5)C4)cn3)nn12 [Example 67] | 100 to 1000 nM |  |
| COc1ccc(-c2c(C(=O)N(C)C)cc3cnc(Nc4ccc(N5CCNCC5)cn4)nn23)cc1 [Example 42] | < 100 nM | < 500 nM |
| CN(C)C(=O)c1cc2cnc(Nc3ccc(N4CCNCC4)cn3)nn2c1-c1ccncc1 [Example 58] | < 100 nM | 2500 to 10000 nM |
| Cn1cc(-c2cc3cnc(Nc4ccc(N5CCC6(CCNCC6)CC5)cn4)nn3c2C2=CCCC2)cn1 [Example 93] | < 100 nM | < 500 nM |
| [2H]C([2H])([2H])N(C(=O)c1cc2cnc(Nc3ccc(N4CCNCC4)cn3)nn2c1C1=CCCC1)C([2H])([2H])[2H] [Example 112] | < 100 nM | < 500 nM |
| Cc1noc(C)c1-c1c(-c2cnn(C)c2)c(-c2c(C)noc2C)n2nc(Nc3ccc(N4CCNCC4)cn3)ncc12 [Reference Example 131, reference compound] | > 3000 nM | > 10000 nM |
| CN(C)C(=O)c1cc2cnc(Nc3ccc(N4CCNCC4)cn3)nn2c1-c1ccc(Cl)cc1 [Example 34] | < 100 nM | < 500 nM |
| CN(C)C(=O)c1cc2cnc(Nc3ccc(N4CCC5(CC4)CNC5)cn3)nn2c1C1=CCCC1 [Example 41] | < 100 nM | < 500 nM |
| Cn1cc(-c2cc3cnc(Nc4ccc(N5CCNCC5)cn4)nn3c2C2=CCCC2)ccc1=O [Example 73] | < 100 nM | 500 to 2500 nM |
| C1=C(c2c(-c3cn[nH]c3)cc3cnc(Nc4ccc(N5CCNCC5)cn4)nn23)CCC1 [Example 74] | < 100 nM | < 500 nM |
| CN(C)C(=O)c1cc2cnc(Nc3ccc(N4CCC5(CCNCC5)C4)cn3)nn2c1-c1ccc(Cl)cc1 [Example 43] | < 100 nM | 500 to 2500 nM |
| N#Cc1cc2cnc(Nc3ccc(N4CCNCC4)cc3)nn2c1Br [Example 1] | < 100 nM | < 500 nM |
| N#Cc1cc2cnc(Nc3ccc(N4CCNCC4)cc3)nn2c1N1CCC2(CCNCC2)CC1 [Example 16] | < 100 nM | 500 to 2500 nM |
| CN(C)C(=O)c1cc2cnc(Nc3ccc(N4CCNCC4)cn3)nn2c1N1CCCC1 [Example 29] | < 100 nM | < 500 nM |
| Cc1nn(C)cc1-c1cc2cnc(Nc3ccc(N4CCNCC4)cn3)nn2c1C1=CCCC1 [Example 23] | 100 to 1000 nM | < 500 nM |
| CN(C)C(=O)c1cc2cnc(Nc3ccc(N4CC5(CCNC5)C4)cn3)nn2c1-c1cnn(C)c1 [Example 70] | < 100 nM |  |
| CN(C)C(=O)c1cc2cnc(Nc3ccc(N4CCC5(CC4)CNC5)cn3)nn2c1-c1ccncc1 [Example 63] | < 100 nM |  |
| Cn1cc(-c2cc3cnc(Nc4ccc(N5CCNCC5)cn4)nn3c2N2CCOCC2)cn1 [Example 79] | < 100 nM |  |
| CN(C)C(=O)c1cc2cnc(Nc3ccc(N4CCNCC4)cn3)nn2c1-c1cccnc1 [Example 36] | 100 to 1000 nM |  |
| COc1ccc(-c2c(-c3cnn(C)c3)c(-c3ccc(OC)cc3)n3nc(Nc4ccc(N5CCNCC5)cn4)ncc23)cc1 [Reference Example 129, reference compound] | > 3000 nM |  |
| CN(C)C(=O)c1cc2cnc(Nc3ccc(N4CC5(CNC5)C4)cn3)nn2c1-c1cnn(C)c1 [Example 66] | < 100 nM |  |
| Cn1cc(-c2cc3cnc(Nc4ccc(N5CCNCC5)cn4)nn3c2C2=CCCC2)ncc1=O [Example 77] | 100 to 1000 nM |  |
| CN(C)C(=O)c1cc2cnc(Nc3ccc(N4CCNCC4)cn3)nn2c1-c1cnn(C)c1 [Example 56] | 100 to 1000 nM |  |
| CN(C)C(=O)c1cc2cnc(Nc3ccc(N4CC5(CNC5)C4)cn3)nn2c1-c1ccncc1 [Example 61] | < 100 nM |  |
| COCCOc1ccc(-c2c(C(=O)N(C)C)cc3cnc(Nc4ccc(N5CCC6(CC5)CNC6)cn4)nn23)cc1 [Example 48] | < 100 nM |  |
| CN(C)C(=O)c1cc2cnc(Nc3ccc(N4CCC5(CC4)CNC5)cn3)nn2c1-c1cnn(C)c1 [Example 64] | 100 to 1000 nM |  |
